The target of series [1] is T1, CAIX-expressing human HT-29 colorectal cancer cells (Homo sapiens, UniProt Q16790).
T1 construct: CAIX-expressing human HT-29 colorectal cancer cells; host or cells: HT-29 human colorectal cancer cells
Nature of the series: FACS binding assay (IC50 determination, competition with tracer 3BP-2776 or 3BP-4149). The conditions noted are these: FACS competition on HT-29 cells, Tracer ID 3BP-2776 (10 nM, biotin-labeled), 4° C., 1 hour; read-out: pIC50 category (activity) (converted). A digest of the protocol: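 HT-29 cells in FACS buffer (PBS, 1% FCS) at 500.000 cells/ml were exposed to compounds competing with a labelled tracer, with biotinylated compounds detected by 1 μg/mL APC-streptavidin for 30 min on ice. APC/Cy5 median fluorescence was read by flow cytometry and IC50 derived by 4PL fit.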

Series [2] addresses T2, human carbonic anhydrase IX (hCAIX-Fc) (Homo sapiens, UniProt Q16790).
T2 construct: purchased SinoBliological (Sino Biological) 10107-H02H
Nature of the series: Surface plasmon resonance assay with hCAIX-Fc. The format is binding. Particulars: 25° C.; for t1/2 category (activity): SPR dissociation half-life, hCAIX-Fc; for Kd: SPR, hCAIX-Fc captured, read-out: pKD category (activity) (converted).

Series [3] in a line: Plasma stability assay, mouse plasma. The conditions noted are these: mouse plasma, 37°C.

Starred links: 1 amine or outer side, 2 acyl side, 3 side chain; linkers in the order of their positions; H or OH if unused. Positions of bridges follow the written chain, without caps; N, C: chain ends. Non-standard residues stand in square brackets, D forms with d. Residues, ends and D or L forms follow the SMILES beside them. *: point of attachment. NH(CH2)3NH(O2Oc(DOTA)) = O=C(O)CN1CCN(CC(=O)O)CCN(CC(=O)NCCOCCOCC(=O)NCCCN*)CCN(CC(=O)O)CC1; NH(CH2)3NHDOTA = O=C(O)CN1CCN(CC(=O)O)CCN(CC(=O)NCCCN*)CCN(CC(=O)O)CC1; X3 = O=C(O)CN1CCN(CC(=O)O)CCN(CC(=O)NCCCOCCOCCOCCCN*)CCN(CC(=O)O)CC1; DOTA = O=C(O)CN1CCN(CC(=O)O)CCN(CC(=O)*)CCN(CC(=O)O)CC1; mXylylene = c1cc(C[*:1])cc(C[*:2])c1; X2 = O=C(CN1CCC(N[*:1])CC1)[*:2]; Suc = O=C(CCC(=O)[*:2])[*:1]; Propanoyl(3-OH) = O=C(CCO)*; Isovaleryl = CC(C)CC(=O)*; Ac6c = NC1(C(=O)O)CCCCC1; Nle = CCCC[C@H](N)C(=O)O Some results are limits rather than exact numbers.

The values that follow come from US20250339569A1, “CARBONIC ANHYDRASE IX LIGANDS” (priority 2021, published 2025).

Turning to `CC(C)[C@H](NC(=O)CN1CCC(NC(=O)CN2CCN(CC(=O)O)CCN(CC(=O)O)CCN(CC(=O)O)CC2)CC1)C(=O)N[C@@H](Cc1ccc(O)cc1)C(=O)N[C@H]1CSCc2cccc(c2)CSC[C@@H](C(N)=O)NC(=O)[C@H](CO)NC(=O)[C@H](Cc2c[nH]c3ccccc23)NC(=O)[C@H]([C@@H](C)O)NC(=O)C2(CCCCC2)NC(=O)[C@H](Cc2c[nH]c3ccccc23)NC(=O)[C@H](CC(=O)O)NC(=O)[C@H]2CCCN2C(=O)[C@H](CCC(=O)O)NC1=O` [3BP-3584] ({DOTA}-[X2]VYCE[dP]DW[Ac6c]TWSC-NH2; linker 4-13 via mXylylene), the IC50 in series [1] is less than 10 nM. Besides, in series [2], the “t1/2 category (activity)” value was “B (t1/2 between 5.1 and 15.0 minutes)”; the Kd was less than 10 nM. Moreover, in series [3] (24 h), the “% intact compound remaining (incubation time)” value (“% intact compound remaining” below) was greater than 95%.
Consider `CC(C)C[C@@H]1NC(=O)[C@H](Cc2c[nH]c3ccccc23)NC(=O)[C@H](CC(=O)O)NC(=O)[C@H]2CCCN2C(=O)[C@H](CCC(=O)O)NC(=O)[C@@H](NC(=O)[C@H](Cc2ccc(O)cc2)NC(=O)[C@@H](NC(=O)CN2CCC(NC(=O)CN3CCN(CC(=O)O)CCN(CC(=O)O)CCN(CC(=O)O)CC3)CC2)C(C)C)CSCc2cccc(c2)CSC[C@@H](C(N)=O)NC(=O)[C@H](CCCNC(=N)N)NC(=O)[C@H](Cc2c[nH]c3ccccc23)NC(=O)[C@H]([C@@H](C)O)NC1=O` [3BP-3599] ({DOTA}-[X2]VYCE[dP]DWLTWRC-NH2; linker 4-13 via mXylylene), for which the IC50 in series [1] was less than 10 nM. In series [2], the “t1/2 category (activity)” value was “B (t1/2 between 5.1 and 15.0 minutes)”; the Kd was less than 10 nM. In addition, the “% intact compound remaining” value in series [3] (6 h) was 52%.
On to `CC(=O)N[C@@H](CO)C(=O)N[C@@H](Cc1ccc(O)cc1)C(=O)N[C@H]1CSCc2cccc(c2)CSC[C@@H](C(N)=O)NC(=O)[C@H](CCC(=O)NCCCNC(=O)COCCOCCNC(=O)CN2CCN(CC(=O)O)CCN(CC(=O)O)CCN(CC(=O)O)CC2)NC(=O)[C@H](Cc2c[nH]c3ccccc23)NC(=O)[C@H]([C@@H](C)O)NC(=O)[C@H](CC(C)C)NC(=O)[C@H](Cc2c[nH]c3ccccc23)NC(=O)[C@H](CC(=O)O)NC(=O)[C@H]2CCCN2C(=O)[C@H](CCC(=O)O)NC1=O` [3BP-3732] (Ac-SYCE[dP]DWLTWE(NH(CH2)3NH(O2Oc(DOTA)))C-NH2; linker 3-12 via mXylylene), for which the IC50 in series [1] is less than 10 nM. Also, in series [2], the “t1/2 category (activity)” value is “B (t1/2 between 5.1 and 15.0 minutes)”; the Kd is less than 10 nM. In series [3] (24 h), the “% intact compound remaining” value is reported as greater than 95%.
With `CC(=O)N[C@H](C(=O)N[C@@H](CCCNC(=N)N)C(=O)N[C@H]1CSCc2cccc(c2)CSC[C@@H](C(N)=O)NC(=O)[C@H](CCC(=O)NCCCNC(=O)COCCOCCNC(=O)CN2CCN(CC(=O)O)CCN(CC(=O)O)CCN(CC(=O)O)CC2)NC(=O)[C@H](Cc2c[nH]c3ccccc23)NC(=O)[C@H]([C@@H](C)O)NC(=O)[C@H](CC(C)C)NC(=O)[C@H](Cc2c[nH]c3ccccc23)NC(=O)[C@H](CC(=O)O)NC(=O)[C@H]2CCCN2C(=O)[C@H](CCC(=O)O)NC1=O)C(C)C` [3BP-3734] (Ac-VRCE[dP]DWLTWE(NH(CH2)3NH(O2Oc(DOTA)))C-NH2; linker 3-12 via mXylylene), the IC50 in series [1] is less than 10 nM. Besides, in series [2], the “t1/2 category (activity)” value was “B (t1/2 between 5.1 and 15.0 minutes)”; the Kd is less than 10 nM. For the same molecule, the “% intact compound remaining” value in series [3] (24 h) is given as 79%.
`CC(C)CC(=O)N[C@@H](Cc1ccc(O)cc1)C(=O)N[C@H]1CSCc2cccc(c2)CSC[C@@H](C(N)=O)NC(=O)[C@H](CCC(=O)NCCCNC(=O)COCCOCCNC(=O)CN2CCN(CC(=O)O)CCN(CC(=O)O)CCN(CC(=O)O)CC2)NC(=O)[C@H](Cc2c[nH]c3ccccc23)NC(=O)[C@H]([C@@H](C)O)NC(=O)[C@H](CC(C)C)NC(=O)[C@H](Cc2c[nH]c3ccccc23)NC(=O)[C@H](CC(=O)O)NC(=O)[C@H]2CCCN2C(=O)[C@H](CCC(=O)O)NC1=O` [3BP-3740] (Isovaleryl-YCE[dP]DWLTWE(NH(CH2)3NH(O2Oc(DOTA)))C-NH2; linker 2-11 via mXylylene): the IC50 in series [1] was less than 10 nM. In series [2], the “t1/2 category (activity)” value was “B (t1/2 between 5.1 and 15.0 minutes)”; the Kd was less than 10 nM. Also, in series [3] (24 h), the “% intact compound remaining” value is greater than 95%.
For the molecule `CC(=O)N[C@@H](CCCCNC(=O)CN1CCN(CC(=O)O)CCN(CC(=O)O)CCN(CC(=O)O)CC1)C(=O)N[C@H](C(=O)N[C@@H](Cc1ccc(O)cc1)C(=O)N[C@H]1CSCc2cccc(c2)CSC[C@@H](C(N)=O)NC(=O)[C@H](CO)NC(=O)[C@H](Cc2c[nH]c3ccccc23)NC(=O)[C@H]([C@@H](C)O)NC(=O)[C@H](CC(C)C)NC(=O)[C@H](Cc2c[nH]c3ccccc23)NC(=O)[C@H](CC(=O)O)NC(=O)[C@H]2CCCN2C(=O)[C@H](CCC(=O)O)NC1=O)C(C)C` [3BP-3840] (Ac-K(DOTA)VYCE[dP]DWLTWSC-NH2; linker 4-13 via mXylylene), the IC50 in series [1] was less than 10 nM. Further, in series [2], the “t1/2 category (activity)” value was “B (t1/2 between 5.1 and 15.0 minutes)”; the Kd was less than 10 nM. Moreover, in series [3] (24 h), the “% intact compound remaining” value is greater than 95%.
Regarding `CC(C)C[C@@H]1NC(=O)[C@H](Cc2c[nH]c3ccccc23)NC(=O)[C@H](CC(=O)O)NC(=O)[C@H]2CCCN2C(=O)[C@H](CCC(=O)O)NC(=O)[C@@H](NC(=O)[C@H](Cc2ccc(O)cc2)NC(=O)CCO)CSCc2cccc(c2)CSC[C@@H](C(N)=O)NC(=O)[C@H](CCC(=O)NCCCNC(=O)CN2CCN(CC(=O)O)CCN(CC(=O)O)CCN(CC(=O)O)CC2)NC(=O)[C@H](Cc2c[nH]c3ccccc23)NC(=O)[C@H]([C@@H](C)O)NC1=O` [3BP-3842] ({Propanoyl(3-OH)}-YCE[dP]DWLTWE(NH(CH2)3NHDOTA)C-NH2; linker 2-11 via mXylylene), in series [1], the IC50 is less than 10 nM. Also, in series [2], the “t1/2 category (activity)” value is “C (t1/2 between 2.1 and 5.0 minutes)”; the Kd was less than 10 nM. The “% intact compound remaining” value in series [3] (24 h) is reported as greater than 95%.
On to `CC(C)C[C@@H]1NC(=O)[C@H](Cc2c[nH]c3ccccc23)NC(=O)[C@H](CC(=O)O)NC(=O)[C@H]2CCCN2C(=O)[C@H](CCC(=O)O)NC(=O)[C@@H](NC(=O)[C@H](Cc2ccc(O)cc2)NC(=O)CN2CCN(CC(=O)O)CCN(CC(=O)O)CCN(CC(=O)O)CC2)CSCc2cccc(c2)CSC[C@@H](C(N)=O)NC(=O)[C@H](CO)NC(=O)[C@H](Cc2c[nH]c3ccccc23)NC(=O)[C@H]([C@@H](C)O)NC1=O` [3BP-3859] ({DOTA}-YCE[dP]DWLTWSC-NH2; linker 2-11 via mXylylene), for which, in series [1], the IC50 is less than 10 nM. Also, the “t1/2 category (activity)” value in series [2] is “B (t1/2 between 5.1 and 15.0 minutes)”. Moreover, the “% intact compound remaining” value in series [3] (24 h) is greater than 95%.
With `CCCC[C@H](NC(=O)CCC(=O)NCCCOCCOCCOCCCNC(=O)CN1CCN(CC(=O)O)CCN(CC(=O)O)CCN(CC(=O)O)CC1)C(=O)N[C@@H](Cc1ccc(O)cc1)C(=O)N[C@H]1CSCc2cccc(c2)CSC[C@@H](C(N)=O)NC(=O)[C@H](CO)NC(=O)[C@H](Cc2c[nH]c3ccccc23)NC(=O)[C@H]([C@@H](C)O)NC(=O)[C@H](CC(C)C)NC(=O)[C@H](Cc2c[nH]c3ccccc23)NC(=O)[C@H](CC(=O)O)NC(=O)[C@H]2CCCN2C(=O)[C@H](CCC(=O)O)NC1=O` [3BP-3870] ({X3-Suc}-[Nle]YCE[dP]DWLTWSC-NH2; linker 3-12 via mXylylene), in series [1], the IC50 is less than 10 nM. For the same molecule, in series [2], the “t1/2 category (activity)” value is “B (t1/2 between 5.1 and 15.0 minutes)”; the Kd is less than 10 nM. In addition, the “% intact compound remaining” value in series [3] (24 h) was 92%.
Turning to `CC(C)C[C@@H]1NC(=O)[C@H](Cc2c[nH]c3ccccc23)NC(=O)[C@H](CC(=O)O)NC(=O)[C@H]2CCCN2C(=O)[C@H](CCC(=O)O)NC(=O)[C@@H](NC(=O)[C@H](Cc2ccc(O)cc2)NC(=O)[C@@H](NC(=O)CN2CCC(NC(=O)CN3CCN(CC(=O)O)CCN(CC(=O)O)CCN(CC(=O)O)CC3)CC2)C(C)C)CSCc2cccc(c2)CSC[C@@H](C(N)=O)NC(=O)[C@H](CO)NC(=O)[C@H](Cc2c[nH]c3ccccc23)NC(=O)[C@H]([C@@H](C)O)NC1=O` [3BP-3905] ({DOTA}-[X2]VYCE[dP]DWLTWSC-NH2; linker 4-13 via mXylylene), the Kd in series [2] was less than 10 nM. In addition, the “% intact compound remaining” value in series [3] (24 h) was found to be 83%.
As to `CC(C)C[C@@H]1NC(=O)[C@H](Cc2c[nH]c3ccccc23)NC(=O)[C@H](CC(=O)O)NC(=O)[C@H]2CCCN2C(=O)[C@H](CCC(=O)O)NC(=O)[C@@H](NC(=O)[C@H](Cc2ccc(O)cc2)NC(=O)CN2CCN(CC(=O)O)CCN(CC(=O)O)CCN(CC(=O)O)CC2)CSCc2cccc(c2)CSC[C@@H](C(N)=O)NC(=O)[C@H](CO)NC(=O)[C@H](Cc2c[nH]c3ccccc23)NC(=O)[C@H]([C@@H](C)O)NC1=O` [3BP-3906] ({DOTA}-YCE[dP]DWLTWSC-NH2; linker 2-11 via mXylylene), the Kd in series [2] is less than 10 nM. The “% intact compound remaining” value in series [3] (24 h) is greater than 95%.
On to `CC(C)C[C@@H]1NC(=O)[C@H](Cc2c[nH]c3ccccc23)NC(=O)[C@@H]2CCCCNC(=O)CC[C@H](NC1=O)C(=O)N[C@@H](Cc1c[nH]c3ccccc13)C(=O)N[C@@H](CO)C(=O)N[C@H](C(N)=O)CSCc1cccc(c1)CSC[C@H](NC(=O)[C@H](Cc1ccc(O)cc1)NC(=O)CN1CCN(CC(=O)O)CCN(CC(=O)O)CCN(CC(=O)O)CC1)C(=O)N[C@@H](CCC(=O)O)C(=O)N1CCC[C@@H]1C(=O)N2` [3BP-4053] ({DOTA}-YCE[dP]KWLEWSC-NH2; linker 2-11 via mXylylene; lactam 5-8), for which, in series [3] (24 h), the “% intact compound remaining” value was found to be 91%.
